Key:
[1] = AUC(0 to t) in Sprague-Dawley rat at 5 mg/kg, po by LC-MS analysis; type: ADME, organism-based; settings: in vivo
[2] = Acute toxicity in ICR mouse assessed as change in heart weight at 30 to 300 mg/kg, po measured every other day for 14 days […]; type: organism-based; settings: in vivo, 336 h, dose 30-300 mg/kg, time 14 day
[3] = Half life in Sprague-Dawley rat at 1 mg/kg, po by LC-MS analysis; type: ADME, organism-based; settings: in vivo
CYP3A4 = CYP3A4 (Homo sapiens, UniProt P08684); assay: Inhibition of CYP3A4 in human liver microsomes assessed as remaining activity at 10 uM using midazolam as substrate preincubated for 5 mins followed by NADPH generating system addition for 15 mins by LC-MS/MS method relative to control; type: ADME, Microsome; settings: probe midazolam, time 20 min, read-out: Activity
CYP3A4, sequence (P08684 whole entry): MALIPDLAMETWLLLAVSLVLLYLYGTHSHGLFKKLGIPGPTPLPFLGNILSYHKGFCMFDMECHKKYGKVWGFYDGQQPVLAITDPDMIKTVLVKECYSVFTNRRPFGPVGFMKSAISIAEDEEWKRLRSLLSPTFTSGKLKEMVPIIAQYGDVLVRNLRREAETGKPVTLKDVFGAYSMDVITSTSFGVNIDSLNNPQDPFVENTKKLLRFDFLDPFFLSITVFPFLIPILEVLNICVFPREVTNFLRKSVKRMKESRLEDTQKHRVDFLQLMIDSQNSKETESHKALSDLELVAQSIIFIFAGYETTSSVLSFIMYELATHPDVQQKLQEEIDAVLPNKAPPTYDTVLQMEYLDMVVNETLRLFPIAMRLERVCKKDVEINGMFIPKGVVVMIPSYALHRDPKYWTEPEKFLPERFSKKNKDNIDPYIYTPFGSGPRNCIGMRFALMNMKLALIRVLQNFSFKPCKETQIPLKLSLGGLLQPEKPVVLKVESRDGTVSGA

HT-29 [4] = assay: Induction of apoptosis in human HT-29 cells assessed as viable cells at 5 uM incubated for 24 hrs by Annexin V FITC/PI staining based flow cytometry analysis ( Rvb = 99 +/- 0.1%); type: functional; settings: read-out: Activity
[5] = Acute toxicity in ICR mouse assessed as abnormal behavior at 30 to 300 mg/kg, po measured every other day for 14 days; type: organism-based; settings: in vivo, 336 h, dose 30-300 mg/kg, time 14 day
[6] = Acute toxicity in ICR mouse assessed as change in histology of kidney at 30 to 300 mg/kg, po measured every other day for 14 days by H and E staining based assay; type: organism-based; settings: in vivo, 336 h, dose 30-300 mg/kg, time 14 day
[7] = Mean residence time in Sprague-Dawley rat at 1 mg/kg, iv by LC-MS analysis; type: ADME, organism-based; settings: in vivo
[8] = Acute toxicity in ICR mouse assessed as change in histology of heart at 30 to 300 mg/kg, po measured every other day for 14 days by H and E staining based assay; type: organism-based; settings: in vivo, 336 h, dose 30-300 mg/kg, time 14 day
HT-29 [9] = assay: Induction of apoptosis in human HT-29 cells assessed as viable cells at 10 uM incubated for 24 hrs by Annexin V FITC/PI staining based flow cytometry analysis ( Rvb = 99 +/- 0.1%); type: functional; settings: read-out: Activity
[10] = Acute toxicity in ICR mouse assessed as change in food intake at 30 to 300 mg/kg, po measured every other day for 14 days; type: organism-based; settings: in vivo, 336 h, dose 30-300 mg/kg, time 14 day
[11] = Cmax in Sprague-Dawley rat at 1 mg/kg, po by LC-MS analysis; type: ADME, organism-based; settings: in vivo
HT-29 [12] = assay: Induction of apoptosis in human HT-29 cells assessed as viable cells at 1 uM incubated for 24 hrs by Annexin V FITC/PI staining based flow cytometry analysis ( Rvb = 99 +/- 0.1%); type: functional; settings: read-out: Activity
[13] = Cmax in Sprague-Dawley rat at 1 mg/kg, iv by LC-MS analysis; type: ADME, organism-based; settings: in vivo
[14] = Acute toxicity in ICR mouse assessed as weight loss at 30 to 300 mg/kg, po measured every other day for 14 days; type: organism-based; settings: in vivo, 336 h, dose 30-300 mg/kg, time 14 day
[15] = Acute toxicity in ICR mouse assessed as change in histology of liver at 30 to 300 mg/kg, po measured every other day for 14 days by H and E staining based assay; type: organism-based; settings: in vivo, 336 h, dose 30-300 mg/kg, time 14 day
[16] = Oral bioavailability in Sprague-Dawley rat at 1 mg/kg by LC-MS analysis; type: ADME, organism-based; settings: in vivo
[17] = target: Prostaglandin G/H synthase 1 (Homo sapiens, UniProt P23219); assay: Inhibition of COX-1 (unknown origin)
Prostaglandin G/H synthase 1, sequence (P23219 whole entry): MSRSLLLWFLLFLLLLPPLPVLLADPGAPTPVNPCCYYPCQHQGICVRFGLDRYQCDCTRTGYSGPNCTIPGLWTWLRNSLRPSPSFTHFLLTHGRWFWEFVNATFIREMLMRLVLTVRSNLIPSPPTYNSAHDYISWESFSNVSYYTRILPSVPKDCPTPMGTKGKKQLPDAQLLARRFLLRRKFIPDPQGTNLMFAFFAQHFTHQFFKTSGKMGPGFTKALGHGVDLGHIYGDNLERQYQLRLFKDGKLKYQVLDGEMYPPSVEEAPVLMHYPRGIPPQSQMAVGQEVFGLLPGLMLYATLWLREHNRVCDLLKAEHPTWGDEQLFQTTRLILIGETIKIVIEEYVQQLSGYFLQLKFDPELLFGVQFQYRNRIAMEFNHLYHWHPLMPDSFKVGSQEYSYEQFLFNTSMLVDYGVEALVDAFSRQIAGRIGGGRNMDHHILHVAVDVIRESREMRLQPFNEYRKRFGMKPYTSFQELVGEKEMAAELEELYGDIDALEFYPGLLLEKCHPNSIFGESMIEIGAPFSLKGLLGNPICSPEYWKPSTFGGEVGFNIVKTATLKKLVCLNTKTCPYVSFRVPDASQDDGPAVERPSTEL

[18] = Acute toxicity in ICR mouse assessed as digestive disorder at 30 to 300 mg/kg, po measured every other day for 14 days; type: organism-based; settings: in vivo, 336 h, dose 30-300 mg/kg, time 14 day
[19] = Acute toxicity in ICR mouse assessed as change in water intake at 30 to 300 mg/kg, po measured every other day for 14 days; type: organism-based; settings: in vivo, 336 h, dose 30-300 mg/kg, time 14 day
[20] = Half-life in Sprague-Dawley rat at 1 mg/kg, iv by LC-MS analysis; type: ADME, organism-based; settings: in vivo
[21] = Oral bioavailability in Sprague-Dawley rat at 5 mg/kg by LC-MS analysis; type: ADME, organism-based; settings: in vivo
CYP1A2 = target: T1, CYP1A2 (Homo sapiens, UniProt P05177); assay: Inhibition of CYP1A2 in human liver microsomes assessed as remaining activity at 10 uM using phenacetin as substrate preincubated for 5 mins followed by NADPH generating system addition for 15 mins by LC-MS/MS method relative to control; type: ADME, Microsome; settings: probe phenacetin, time 20 min, read-out: Activity
T1 sequence (P05177 whole entry): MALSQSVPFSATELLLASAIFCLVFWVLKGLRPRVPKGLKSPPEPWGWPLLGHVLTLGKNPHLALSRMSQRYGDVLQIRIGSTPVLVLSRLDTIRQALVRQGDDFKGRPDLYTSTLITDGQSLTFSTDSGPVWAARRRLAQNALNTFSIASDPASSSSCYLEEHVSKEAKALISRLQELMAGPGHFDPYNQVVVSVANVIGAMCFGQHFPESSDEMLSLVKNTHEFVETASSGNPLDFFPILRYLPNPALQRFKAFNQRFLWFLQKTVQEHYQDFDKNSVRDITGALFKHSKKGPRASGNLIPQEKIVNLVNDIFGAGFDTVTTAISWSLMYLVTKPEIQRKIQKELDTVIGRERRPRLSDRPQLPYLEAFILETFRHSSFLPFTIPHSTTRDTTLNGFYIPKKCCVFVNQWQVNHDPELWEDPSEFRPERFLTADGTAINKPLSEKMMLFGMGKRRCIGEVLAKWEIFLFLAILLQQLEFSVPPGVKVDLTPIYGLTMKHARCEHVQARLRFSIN

[22] = target: T2, Amine oxidase [flavin-containing] B (Homo sapiens, UniProt P27338); assay: Inhibition of MAOB (unknown origin)
T2 sequence (P27338 whole entry): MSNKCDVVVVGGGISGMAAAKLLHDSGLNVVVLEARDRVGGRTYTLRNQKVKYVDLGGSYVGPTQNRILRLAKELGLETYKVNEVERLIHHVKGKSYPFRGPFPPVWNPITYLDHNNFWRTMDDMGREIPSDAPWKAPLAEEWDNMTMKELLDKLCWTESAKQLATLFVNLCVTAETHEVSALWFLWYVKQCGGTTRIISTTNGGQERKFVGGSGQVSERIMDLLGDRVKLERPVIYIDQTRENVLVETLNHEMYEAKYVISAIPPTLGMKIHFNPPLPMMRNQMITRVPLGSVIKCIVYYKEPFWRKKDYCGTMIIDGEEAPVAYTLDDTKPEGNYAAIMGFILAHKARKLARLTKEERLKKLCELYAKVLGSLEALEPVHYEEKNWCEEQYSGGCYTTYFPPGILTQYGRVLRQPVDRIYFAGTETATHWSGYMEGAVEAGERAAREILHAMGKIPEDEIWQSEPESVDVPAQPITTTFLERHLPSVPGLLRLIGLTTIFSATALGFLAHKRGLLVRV

[23] = AUC(0 to t) in Sprague-Dawley rat at 1 mg/kg, po by LC-MS analysis; type: ADME, organism-based; settings: in vivo
U-937 = assay: Induction of apoptosis in human U-937 cells assessed as viable cells at 5 uM incubated for 24 hrs by Annexin V FITC/PI staining based flow cytometry analysis ( Rvb = 95.2 +/- 0.4%); type: functional; settings: read-out: Activity
hERG = hERG (Homo sapiens, UniProt Q12809); assay: Inhibition of hERG expressed in HEK cells assessed as remaining activity at 10 uM by automated patch clamp method relative to control; type: toxicity, cell-based; settings: HEK cells expressing hERG, read-out: Activity
hERG, sequence (Q12809 whole entry): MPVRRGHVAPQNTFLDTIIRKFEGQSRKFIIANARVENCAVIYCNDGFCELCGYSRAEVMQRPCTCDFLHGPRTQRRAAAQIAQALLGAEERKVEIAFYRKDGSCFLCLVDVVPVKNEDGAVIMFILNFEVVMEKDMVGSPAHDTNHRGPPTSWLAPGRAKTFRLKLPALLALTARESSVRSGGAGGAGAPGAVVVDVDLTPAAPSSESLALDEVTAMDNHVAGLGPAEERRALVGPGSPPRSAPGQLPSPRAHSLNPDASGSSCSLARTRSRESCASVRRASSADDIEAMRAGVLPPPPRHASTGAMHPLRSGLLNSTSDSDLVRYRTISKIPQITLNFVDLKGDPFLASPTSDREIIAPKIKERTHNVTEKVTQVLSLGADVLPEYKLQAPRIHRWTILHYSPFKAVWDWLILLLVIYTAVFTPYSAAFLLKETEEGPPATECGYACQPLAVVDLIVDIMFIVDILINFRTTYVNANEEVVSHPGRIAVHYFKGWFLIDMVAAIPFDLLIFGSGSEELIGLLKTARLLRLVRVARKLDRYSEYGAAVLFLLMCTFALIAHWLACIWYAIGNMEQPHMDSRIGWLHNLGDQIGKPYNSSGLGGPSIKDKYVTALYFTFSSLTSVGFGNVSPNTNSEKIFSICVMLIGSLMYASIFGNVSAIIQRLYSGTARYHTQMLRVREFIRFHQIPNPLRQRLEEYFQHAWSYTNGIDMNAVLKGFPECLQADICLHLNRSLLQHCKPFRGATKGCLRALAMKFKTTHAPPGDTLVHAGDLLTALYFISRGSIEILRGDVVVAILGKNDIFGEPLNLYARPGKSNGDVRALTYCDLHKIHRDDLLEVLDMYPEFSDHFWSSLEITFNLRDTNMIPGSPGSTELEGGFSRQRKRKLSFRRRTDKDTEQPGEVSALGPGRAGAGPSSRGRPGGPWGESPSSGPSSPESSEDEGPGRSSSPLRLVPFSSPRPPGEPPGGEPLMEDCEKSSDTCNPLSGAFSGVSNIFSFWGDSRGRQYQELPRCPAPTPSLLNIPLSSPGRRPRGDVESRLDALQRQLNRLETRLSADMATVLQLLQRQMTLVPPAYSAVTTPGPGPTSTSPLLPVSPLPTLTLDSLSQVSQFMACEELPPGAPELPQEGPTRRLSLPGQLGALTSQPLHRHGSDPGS

Q: Which AUCt [1] does the source give for `Cc1nc(NC(=O)c2sc3cc(F)ccc3c2Cl)c(C)c(C)c1O` here?
A: 1849.2 ng·h/mL

Q: What about the Activity [2] of the same compound?
A: Non-Toxic

Q: What about the half-life [3] of the same compound?
A: 228 min

Q: What about the activity at 0.25 h, 10 µM (CYP3A4) of the same compound?
A: 89.9%

Q: What about the viability at 5 µM (HT-29 [4]) of the same compound?
A: 98.7%

Q: What about the Activity [5] of the same compound?
A: Non-Toxic

Q: What about the Activity [6] of the same compound?
A: Non-Toxic

Q: What about the MRT [7] of the same compound?
A: 1.2 h

Q: What about the Activity [8] of the same compound?
A: Non-Toxic

Q: And the viability at 10 µM (HT-29 [9])?
A: 98.6%

Q: What about the Activity [10] of the same compound?
A: Non-Toxic

Q: And the Cmax [11]?
A: 51.9 ng/mL

Q: What about the viability at 1 µM (HT-29 [12]) of the same compound?
A: 98.8%

Q: And the Cmax [13]?
A: 1880 ng/mL

Q: And the Activity [14]?
A: Non-Toxic

Q: What about the Activity [15] of the same compound?
A: Non-Toxic

Q: What about the F [16] of the same compound?
A: 24.5%

Q: What about the IC50 [17] of the same compound?
A: 800 nM

Q: And the Activity [18]?
A: Non-Toxic

Q: What about the Activity [19] of the same compound?
A: Non-Toxic

Q: And the half-life [20]?
A: 120 min

Q: And the F [21]?
A: 36.7%

Q: And the activity at 0.25 h, 10 µM (CYP1A2)?
A: 89.2%

Q: And the IC50 [22]?
A: 54 nM

Q: And the AUCt [23]?
A: 246.3 ng·h/mL

Q: What about the viability at 5 µM (U-937) of the same compound?
A: 95.2%

Q: And the activity at 10 µM (hERG)?
A: 91.7%
